Assay results taken from article PMC9963438, “Emerging Effects of Resveratrol Derivatives in Cells Involved in Oral Wound Healing: A Preliminary Study” (International Journal of Molecular Sciences, 2023).

What was measured:
HGFs = assay: MTT viability/proliferation on HGFs; assay type: cell-based, human; conditions: vs CTRL and RSV 10 µM
Protocol: For the initial screening, HGFs were seeded at a density of 8000 cells/well into a 96-well culture plate and cultured for 24 h. […] The DMSO final concentration was established at 0.1% in all tested samples.
(§1) To measure HUVECs, HGFs, and HOBs metabolic activity as an indicator of cell viability and proliferation, an MTT assay (Sigma Aldrich, Milan, Italy) was performed. In brief, 8000 cells/well (HUVECs, HGFs and HOBs) were seeded in 96-well plates and after 24 h cells were treated with increasing concentrations of 1d and 1h for 48 h and 72 h. Then, the medium was replaced by a fresh one supplemented with […] MTT and probed for 4 h at 37 °C. The medium containing MTT was discarded and replaced by an equal volume of DMSO to dissolve formazan crystals. The absorbance of the solution was read at a 540 nm wavelength by a microplate reader (Multiskan GO, Thermo Scientific, MA, USA). Values obtained without cells were considered as background. Viability and proliferation were normalized to control cells treated with DMSO 0.1%.

HOBs = assay: MTT viability/proliferation on HOBs; assay type: cell-based, human; conditions: vs CTRL and RSV 10 µM
Protocol: as §1

[1] = test system: Alkaline phosphatase (ALP) activity in HOBs; assay: ALP activity assay in HOBs; assay type: cell-based, human; conditions: 5 µM, 7 days, compared to CTRL and RSV; not statistically significant
Protocol: Alkaline phosphatase (ALP) activity was evaluated by ALP assay kit colorimetric AB83369 (Abcam Inc., Cambridge, UK). HOBs were seeded at a density of 5 × 10^4 cells/well and treated with 1d and 1h. After 7 days of culture, cell lysate was obtained, and ALP levels were measured according to the manufacturer instructions. The absorbance was measured at 450 nm by a microplate reader (Synergy H1 Hybrid BioTek Instruments, Winooski, VT, USA).

FN1 mRNA in HGFs = assay: RT-qPCR of FN1 in HGFs; assay type: cell-based, human; conditions: 5, 10, 20 µM, 48 and 72 h, compared to RSV-treated cells and CTRL
Protocol: (§2) Total RNA was isolated using Trifast reagent (EuroClone) according to the manufacturer instructions from 3 × 10^5 cells/well treated with increasing concentrations of 1d and 1h for 48 h and 72 h. Complementary DNA (cDNA) was obtained using GoTaq® 2 Step RT-qPCR Kit (Promega, Madison, WI, USA) in accordance with the manufacturer’s instructions. RT-qPCR was carried out using SYBR Green (Promega) on the Quant Studio 7 Pro Real-Time PCR System (ThermoFisher, Waltham, MA, USA). The results were normalized to glyceraldehyde 3-phoshate dehydrogenase (GAPDH) for HUVECs and HGFs and to β-actin (βACT) for HOBs using the 2^−ΔΔCt method.

ALP mRNA in HOBs = assay: RT-qPCR of ALP in HOBs; assay type: cell-based, human; conditions: all concentrations (5, 10, 20 µM), compared to CTRL; not significant
Protocol: as §2

[2] = LogP determination (n-octanol/phosphate buffer pH 7.4); assay type: physicochemical; conditions: n-octanol/aqueous phosphate buffer, pH 7.4, n-octanol / phosphate buffer pH 7.4; mean of three experiments (SD)
Protocol: Both n-octanol and aqueous phosphate buffer (pH 7.4) solutions were saturated of each other by shaking. A total of 1 mL of n-octanol was added to an equal volume of an aqueous phosphate buffer (pH 7.4). A total of 5 mg of each compound was added and mixed by repeated inversion up to 200 times for 5 min and then allowed to stand for 30 min for the full separation of the two phases. Next, the respective phases were filtered and analyzed by HPLC [50] and the logarithm of the ratio of the concentrations of the unionized solute in the solvents (LogP) were determined.

[3] = Kinetics in human plasma (enzymatic hydrolysis); assay type: in vitro ADME; conditions: 37 °C; for Enzymatic hydrolysis t ½ / Enzymatic hydrolysis Kobs: Human plasma; for Enzymatic hydrolysis Kobs: mean of three experiments (SD); for half-life at 40 µg/mL: human, human plasma (80%) diluted with phosphate buffer, pH 7.4, Human plasma, read-out: Enzymatic hydrolysis t ½
Protocol: Human plasma was obtained from 3H Biomedical (Uppsala, Sweden, Europe). Plasma fractions (2 mL) were diluted with […] of a 0.02 M phosphate buffer (PBS, pH 7.4) to obtain a final volume of 2.5 mL (80% of plasma). A total of 100 µL of a stock solution, prepared to dissolve 1 mg of each compound in 1 mL of ACN, was added. Studies were performed at 37 ± 0.5 °C using a shaking bath. Aliquots (100 µL) were taken at established time points and treated with 400 µL of 0.01 M HCl in methanol. After centrifugation for 15 min at 6000× g, the supernatant was filtered and analyzed by HPLC [51].

[4] = test system: human gingival fibroblasts (HGFs); assay: MTT cytocompatibility screening on HGFs, 24 h; assay type: cell-based; conditions: for HGFs metabolic activity / cell viability (MTT): 10 µM, vs control (DMSO) and RSV; for HGFs cell viability (MTT): vs control and RSV

CCS(=O)(=O)Nc1ccc(/C=C/c2ccccc2)cc1 [1h, N-{4-[(E)-2-Phenylvinyl]phenyl}ethanesulfonamide]
HGFs proliferation rate (MTT) (HGFs; 5 µM, 48 h): cell proliferation was significantly higher
HGFs proliferation rate (MTT) (HGFs; 5 µM, 72 h): cell proliferation was significantly higher
HOBs metabolic activity / proliferation (MTT) (HOBs; 5 µM, 48 h): enhanced the metabolic activity of osteoblasts
HOBs metabolic activity / proliferation (MTT) (HOBs; 5 µM, 72 h): significantly enhanced cell proliferation with respect to the CTRL
HOBs metabolic activity / proliferation (MTT) (HOBs; 10 µM, 48 h): slightly promoted cell growth
HOBs metabolic activity / proliferation (MTT) (HOBs; 20 µM, 48 h): decreased in respect to the CTRL and RSV
ALP activity in HOBs [1]: same ALP levels observed in the control cells and osteoblasts treated with RSV
FN1 mRNA level (FN1 mRNA in HGFs): no significant modifications
ALP mRNA level (ALP mRNA in HOBs): slight increase in the ALP mRNA level
logP [2]: < 3
Enzymatic hydrolysis t ½ [3]: 51.7 h
Enzymatic hydrolysis Kobs [3]: 0.013 (±0.003) h^−1
half-life at 40 µg/mL [3]: > 49 h
melting point: 230 to 231 °C
HGFs metabolic activity / cell viability (MTT) [4]: statistically augmented the cell viability
HGFs cell viability (MTT) ([4]; 20 µM): slight increase in HGF viability
HGFs cell viability (MTT) ([4]; 50 µM): no statistically significant differences

Cc1ccc(S(=O)(=O)Nc2ccc(/C=C/c3ccccc3)cc2)cc1 [1d, 4-Methyl-N-{4-[(E)-2-phenylvinyl]phenyl}benzenesulfonamide]
HGFs proliferation rate (MTT) (HGFs; 5 µM, 48 h): significant increase in proliferation rate
HGFs proliferation rate (MTT) (HGFs; 5 µM, 72 h): significantly promoted cell proliferation
HGFs proliferation rate (MTT) (HGFs; 10 µM, 48 h): slight increment of cell growth compared to RSV, but not in respect to the CTRL
HGFs proliferation rate (MTT) (HGFs; 20 µM, 72 h): proliferative rate was lower
HOBs metabolic activity / proliferation (MTT) (HOBs; 5 µM, 48 h): enhanced the metabolic activity of osteoblasts
HOBs metabolic activity / proliferation (MTT) (HOBs; 5 µM, 72 h): significantly promoted the proliferation of cells
HOBs metabolic activity / proliferation (MTT) (HOBs; 10 µM, 48 h): slightly promoted cell growth
ALP activity in HOBs [1]: enhanced
FN1 mRNA level (FN1 mRNA in HGFs): no significant modifications
ALP mRNA level (ALP mRNA in HOBs): slight increase in the ALP mRNA level
logP [2]: < 3
Enzymatic hydrolysis t ½ [3]: 49.5 h
Enzymatic hydrolysis Kobs [3]: 0.014 (±0.005) h^−1
half-life at 40 µg/mL [3]: > 49 h
melting point: 182 to 183 °C
HGFs metabolic activity / cell viability (MTT) [4]: statistically augmented the cell viability
HGFs cell viability (MTT) ([4]; 20 µM): statistically significant increase in HGF viability
HGFs cell viability (MTT) ([4]; 50 µM): positively and statistically increases cell viability
